Where two headings read alike, the source gives them in different places.
Experiments:
lewis lung cancer [1] = test: Anti-artificial metastasis on Lewis lung cancer in mice (intravenous inoculation); format: in vivo, C57Bl/6 mice; conditions: TAXOL 3 mg/kg i.p.
Procedure: The suspension (0.2 mL/mice, 3×10^5 tumor cell) was inoculated intravenously into the tails of fifty C57Bl/6 mice. […] The tumors, spleen and lung were removed and weighed.

[2] = test system: human breast cancer line MDA-MB-231; test: Tumor growth inhibition in nude mice xenograft model, MDA-MB-231; conditions: Paclitaxel 24 mg/kg × 4, intermittent i.p.
Procedure: • 1. […] Drug administration dose were set as: 10 mg/kg, 15 mg/kg, and 20 mk/kg, drug administration volume was 0.2 mL/20 g. • 2. […] MDA [Peptide (P) 0.54 mg/mL (0.001M), Example 10], a colorless and clear liquid, was prepared by the commission, can be directly used after the repackaging in a sterile condition, stored at 4° C. […] Certificate NO. […] SYSK (BeiJing) 2004-0001. Experiment Methods:
The mice were divided into groups and administrated drug after 11 days.
The mice were divided into eight groups, each group had 6-8 mice. The groups contained Negative control. […] After grouping, all mice were administrated with drug by intraperitoneal injection once a day depends on their body weight.
Other groups were administered with drugs for 24 times successively. The experiment was completed 24 h after the last administration.
The mice were sacrificed, and tumors were isolated and their weight was measured, and the inhibition rate of tumor growth by drugs were calculated. […] Calculation methods and formula were omitted.

[3] = test system: Mice breast cancer cell line (4T1, ATCC CRL2539); conditions: TAXOL 3 mg/kg i.p. once daily
Procedure: Mice breast cancer cell line (4T1, ATCC CRL2539) was a generous gift from Prof. Wei Liang of the Institute of biophysics, Chinese Academy of Sciences. The cell was cultured in the 1640 medium (Gibco) containing 10% fetal bovine serum (FBS), 1% glutamine and 1% penicillin.
4T1 cells in logarithmic phase were collected and the concentration was adjusted to 2×10^6/mL. 4T1 tumors were introduced in female BALB/c mice by injecting subcutaneously into the fourth fat pad area of the right abdominal mammary gland with the dose of 2×10^5/0.1 mL. […] From the 9th day after implantation, tumor growth was measured every 2 days with vernier calipers for determining the long diameter and short diameter of tumor. Tumor volume was calculated by the formula (½)×long diameter×short diameter^2. Drug was withdrawn on the twenty-eight days after the implantation, all mice were then sacrificed and the body weight were measured. The tumors, spleen and lung were removed and weighed. The lungs were fixed in Bouin's fixative for 24 h. The numbers of lung metastasis nodule were counted, the statistics was evaluated using Mann-Whitney U test.

lewis lung cancer [4] = conditions: TAXOL 6 mg/kg i.p. once daily
Procedure: C57Bl/6 mice with lewis lung cancer were sacrificed and the tumor was removed. The tumor cell suspension (5×10^6 cell/mL) was prepared in a sterile condition. The suspension (0.2 mL/mice, 1×10^6 tumor cell) was inoculated subcutaneously into the axillary of 24 C57Bl/6 mice. […] From the 7th day after the implantation, the long diameter and short diameter of tumor was measured every 2 days. Tumor volume was calculated by the formula (½)×long diameter×short diameter^2. Drug was withdrawn on the eighteenth day after the implantation. All mice were then sacrificed and the body weight was measured. The tumors, spleen and lung were removed and weighed. The lungs were fixed in Bouin's fixative for 24 h. The numbers of lung metastasis nodule were counted, and the statistics was evaluated by Mann-Whitney U test.

Human lung cancer H460 = conditions: for TGI: 24 mg/kg
Text: Through cell culture in vitro, the tumor was inoculated on nude mice, the tumor grew and passaged for the experiment use. • Animals: BALB/c nude mice, ♀, 4˜5 weeks old, were obtained from the Experimental Lab, Chinese Academy of Medical Science, Certificate NO. […] Experiment Method:
The tumor-bearing mice with good tumor growth and good general physical condition were selected and sacrificed. Tumor was isolated in a sterile condition and cut into fragments (diameter for about 2-3 mm) by surgical knife. The fragments were then hypodermically inoculated in posterior axillary of nude mice by means of a trocar.
After the tumors grew naturally for eight days, the average volume of tumors reaches 130 mm^3. The length and width of tumor was measured using vernier calipers, and divided into groups by the tumor volume.
The mice were divided into five groups for observation, each groups had eight mice. […] Respective drug was administrated for each group from the grouping day.
The experiment was terminated 24 hours after the last administration.
During the experimentation, the tumors sizes (length and width) and body weights of mice were measured once every three days. The tumor volume (TV) and relative tumor volume (RTV) were calculated according to the method for references, and the tumor volume growth tendency chart was plotted.
At the end of the experiment, the mice were sacrificed. Tumors were removed and weighed, and the inhibition rate of the tumor growth by drugs was calculated. Statistical significance of the tumor weight, tumor volume and RTV level were evaluated by t-test.
[formula] • (C, average tumor weight of control group; T, average tumor weight of administrated group) • Tumor Volume (TV)=length×width^2/2. • Relative Tumor Volume (RTV) formula: Vt/Vo • (Vo is the volume of TV at the beginning of the grouping, and Vt is the volume of TV at measure time) • Anti-tumor activities were evaluated by Tumor Relative proliferation Rate T/C (%)
[formula] • Therapeutic effect evaluation standard: T/C (%)>40, was judged as invalid; • T/C (%)≦40, and through statistical evaluation P<0.05, was judged as valid.

[5] = Paclitaxel injection 24 mg/kg × 4, once every three days

Compound: CC(=O)O[C@H]1C(=O)[C@@]2(C)[C@H]([C@H](OC(=O)c3ccccc3)[C@]3(O)C[C@H](OC(=O)[C@H](O)[C@@H](NC(=O)c4ccccc4)c4ccccc4)C(C)=C1C3(C)C)[C@]1(OC(C)=O)CO[C@@H]1C[C@@H]2O [Paclitaxel, reference compound]
- Lung weight (lewis lung cancer [1]): 497 ± 491 mg
- Lung metastasis nodule counts (lewis lung cancer [1]; listed as TAXOL): 38.5 ± 28
- Lung metastasis nodule counts (lewis lung cancer [1]; listed as Taxol): no significant improvement
- RTV [2]: 3.18 ± 2.735
- T/C [2]: 17.64%
- TGI [2]: 84.9%
- Tumor volume Beginning [2]: 133 ± 39.8 mm^3
- Tumor volume End [2]: 422 ± 404.6 mm^3
- Tumor weight [2]: 0.43 ± 0.416 g
- Lung weight [3]: 190 ± 49 mg
- Lung metastasis nodule counts ([3]; listed as TAXOL): 41.2 ± 9
- Lung metastasis nodule counts ([3]; listed as Taxol): no significant improvement
- Lung metastasis nodule counts (lewis lung cancer [4]; listed as TAXOL): 24.9 ± 9
- Lung metastasis nodule counts (lewis lung cancer [4]; listed as Taxol): no significant improvement
- Body weight Beginning (Human lung cancer H460; [5]): 18.9 ± 1.28 g
- Body weight End (Human lung cancer H460; [5]): 18.6 ± 1.41 g
- RTV (Human lung cancer H460; [5]): 11.9 ± 3.16
- T/C (Human lung cancer H460; [5]): 35.6%
- Tumor volume Beginning (Human lung cancer H460; [5]): 130 ± 36.7 mm^3
- Tumor volume End (Human lung cancer H460; [5]): 1583 ± 507.2 mm^3
- Tumor weight (Human lung cancer H460; [5]): 1.16 ± 0.410 g
- TGI (Human lung cancer H460; Paclitaxel injection 24 mg/kg × 4, once every three days, listed as Paclitaxel injection): 61.0%
- TGI (Human lung cancer H460; Paclitaxel injection 24 mg/kg × 4, once every three days, listed as paclitaxel): 61%
- Body weight lost compared with the average weight at the beginning of grouping (Human lung cancer H460; paclitaxel 24 mg/kg intermittently): 2
- Tumor growth inhibition rate compared with negative control (Human lung cancer H460; paclitaxel 24 mg/kg, after the fourth administration): 65%

— patent US9085605B2, “Chemical synthesis and anti-tumor and anti-metastatic effects of dual functional conjugate” (Shenzhen Salubris Pharmaceuticals Co., Ltd., priority 2010, dated 2015)
